We go through three compounds from US12201690B2, “Formulations/compositions comprising ibrutinib” (Janssen Pharmaceutica NV, priority 2018, dated 2025).

The nature of data set [1]: 1M ASAP (Accelerated Stability Assessment Program) stability study. The class given is physicochemical. Particulars: samples stored for 1 month at 60° C. How it is done:
The new 25 concepts were screened in a 1M ASAP (Accelerated Stability Assessment Program) stability study (5, 40 and 60° C. storage conditions), in a 6M lab stability study and in PET tests.
The Results of the 6-Month (6M) Lab Stability

Data set [2] in a line: Microscope search for new needle-shaped (co-)crystals in stored/stressed suspensions. Type of data set: physicochemical. Particulars: benzyl alcohol as preservative. The source says:
As consequence of the increased paraben concentration, a crystallization issue has been observed with the suspension Composition 2 after a few months in stability at different storage conditions. […] By IR, Raman and MS analysis, the new needle crystals are characterized as potentially being co-crystals of the API and Parabens.
Between the acceptable concepts 13 to 20, after 6M storage in cyclic conditions, only in the concept containing benzoic acid as an incipient was new crystallization observed. The other samples were stable. • All concepts were physically stressed by rolling.
All suspension concepts were rolled into a glass vial, closed with a child resistant stopper, at room temperature, horizontally, at a speed of 25 rpm, for 1M. […] Between these concepts, only concepts 18, 19 and 20 were stable.
Some concepts were spiked to try to induce a rapid co-crystallization. Concepts containing Methyl and Ethyl paraben, were spiked with few granules of powder of co-crystals of API/Methyl Paraben and API/Et Paraben.

Turning to `C/C=C/C=C/C(=O)O` [Sorbic acid], the “reduction in preservative assay” value in data set [1] is given as “about 15%”. On the same count and under the same terms, for `O=C(O)c1ccccc1` [benzoic acid] the value was “about 5%”. With `OCc1ccccc1` [benzyl alcohol], the “reduction in preservative assay” value in data set [1] stood at 1%. Further, in data set [2], the “(co-)crystallization” value is reported as “not observed”.
